Measured values reported in paper PMC10779311, “Antileishmanial Activity, Toxicity and Mechanism of Action of Complexes of Sodium Usnate with Lanthanide Ions: Eu(III), Sm(III), Gd(III), Nd(III), La(III) and Tb(III)” (International Journal of Molecular Sciences, 2023).
In brackets after ≈: the same amount, converted by molar mass.

Key:
[1] = test system: promastigotes of L. tropica; design: method as in ref 18 Derici et al.; conditions: ref 18 Derici et al.; cited from earlier work
[2] = test system: promastigotes of Leishmania major; design: method as in ref 18 Derici et al.; conditions: ref 18 Derici et al.; cited from earlier work
[3] = test system: L. (L.) infantum promastigotes; design: method as in ref 16 Luz et al.; conditions: ref 16 Luz et al.; cited from earlier work
[4] = test system: Trypanosoma cruzi epimastigotes; design: method as in ref 45 Carvalho et al.; conditions: 30–50 μg·mL^−1; ref 45 Carvalho et al.; cited from earlier work
[5] = test system: L. (L.) infantum promastigotes; design: method as in ref 16 Luz et al.; conditions: 25 μg·mL^−1; ref 16 Luz et al.; cited from earlier work
[6] = test system: promastigotes of L. (L.) infantum; design: method as in ref 18 Derici et al.; conditions: ref 18 Derici et al.; cited from earlier work
[7] = test system: L. (L.) amazonensis-infected macrophages; assay: NO production by infected cells (Griess reaction); assay type: cell-based, BALB/c mice; conditions: 24 h after treatment, lowest concentration 6.25 µg·mL^−1
Method: Nitric oxide (NO) production by infected and treated peritoneal macrophages was estimated in the supernatants from the intracellular amastigotes assay by the Griess reaction. Aliquots of the supernatants ([…]) were incubated with Griess reagent (1:1) for 10 min at room temperature. Absorbance was read on a microplate reader (HumanReader HS, Wiesbaden, Germany) at 550 nm. Conversion of nitrite (NO^−2) to micromolar (µM) was performed by comparing the samples to a standard curve obtained with known concentrations (1–10 µM) of sodium nitrite diluted in RPMI 1640 medium (Sigma-Aldrich® São Paulo, Brazil). The average and standard error of the mean (SEM) were calculated from three replicates. The data were analyzed using ANOVA and subsequently subjected to the Bonferroni test.

[8] = test system: L. (L.) amazonensis promastigote forms; assay: Flow cytometry for mitochondrial membrane potential (TMRE); assay type: cell-based, Leishmania (Leishmania) amazonensis
[9] = test system: L. (L.) amazonensis promastigote forms; assay: Flow cytometry for apoptosis and membrane permeability (PE Annexin V / 7-AAD); assay type: cell-based, Leishmania (Leishmania) amazonensis; conditions: treatment at IC50
Source text: PE Annexin V staining precedes the loss of membrane integrity observed in the final stages of cell death, resulting from either apoptotic or necrotic processes. PE Annexin V is used in conjunction with the vital dye 7-Amino-Actinomycin (7-AAD) to identify early apoptotic cells (7-AAD negative, PE Annexin V positive). Viable cells with intact membranes exclude 7-AAD, but the membranes of dead and damaged cells are permeable to 7-AAD. Cells that are in late apoptosis or already dead are both PE Annexin V and 7-AAD positive. […] Heat-killed parasites (60 °C bath/10 min) were used as positive control, and untreated parasites were used as negative control. Promastigotes were stained with 5 µL of PE Annexin V and 5 µL 7-AAD (PE Annexin V Apoptosis Detection Kit I, BD Biosciences^TM, Franklin Lakes, NJ, USA) and immediately subjected to flow cytometric analysis (BD FACSCanto^TM II). Then, 10,000 events were captured in the region previously determined to correspond to the parasites. Fluorescence was quantified and histograms were generated.

[10] = test system: L. (L.) amazonensis promastigote forms; assay: In vitro antileishmanial activity on promastigote forms (MTT); assay type: cell-based, Leishmania (Leishmania) amazonensis; conditions: 72 h, MTT; read-out: L. amazonensis Promastigotes (Pro.) IC50
[11] = test system: NIH/3T3 fibroblasts; assay: Cytotoxicity in mammalian cells (sulforhodamine B); assay type: cell-based; conditions: 48 h, read-out: Fibroblasts NIH/3T3 (Fib.) IC50
Method: The cytotoxic effect of compounds 1–7 was evaluated on NIH/3T3 fibroblasts obtained from the Rio de Janeiro Cell Bank (Duque de Caxias, Brazil). Fibroblasts were seeded at […] in 96-well plates. After 24 h of fixation, cells were incubated for 48 h with 1–7 at 2.5–250 µg·mL^−1, in three replicates. Cell growth was evaluated using the sulforhodamine B colorimetric method, and the optical with absorbances read on the PT-READER microplate instrument (Spectramax 190, Molecular Devices, Sunnyvale, CA, USA) at 540 nm. […] The growth inhibition percentage-GI (%) of each test sample was calculated in Microsoft Office Excel 2007 software. IC50 was determined graphically in the Microcal Origin Version 6.00 program. The selectivity index (SI) was calculated as the ratio between the cytotoxicity on cells (IC50) and the activity on the parasite forms (IC50).

[12] = test system: L. (L.) amazonensis intracellular amastigotes; assay: In vitro antileishmanial activity on intracellular amastigotes in peritoneal macrophages; assay type: cell-based, Leishmania (Leishmania) amazonensis
Method: Peritoneal macrophages were obtained from BALB/c mice in RPMI 1640 culture medium (Sigma-Aldrich® São Paulo, Brazil). After exclusion of inviable cells with trypan blue staining (Sigma-Aldrich® São Paulo, Brazil), cells were transferred to 24-well plates with 13 mm round glass coverslips (10^6 cells/well) and kept at 37 °C/5% CO2. After adhesion for one hour, cells were infected with promastigote forms of L. (L.) amazonensis in the stationary phase (4 × 10^6 cells/well). After 4 h of incubation, samples (complexes 1–7) were added in six replicates (6.25–50.0 µg·mL^−1). […] Coverslips were removed after 24 h, subjected to a dehydration battery with increasing concentrations of acetone: xylol and stained with Giemsa (Sigma-Aldrich®, São Paulo, Brazil) diluted 1:10 in distilled water. After mounting on slides, 200 cells per coverslip were analyzed by light microscopy and the average number of amastigotes/cells was calculated. IC50 was determined using a non-linear dose–response regression curve as described above. The concentrations of complexes were compared by Two-way ANOVA followed by the Tukey test.

CC(=O)c1c(O)c(C)c(O)c2c1OC1=CC(=O)C(C(C)=O)C(=O)C12C (centres unmarked) [usnic acid, 2,6-diacetyl-7,9-dihydroxy-8,9-dimethyl-1,3(2H,9bH)-dibenzofurandione]
IC50/48 h on promastigotes [1]: 21.06 µg/mL (≈ 61.2 µM) | IC50/48 h on promastigotes [2]: 10.76 µg/mL (≈ 31.3 µM) | IC50/72 h on promastigotes [3]: 18.30 µg/mL (≈ 53.1 µM) | damage to the mitochondria [4]: marked swelling and branching | changes in the mitochondrial morphology [5]: marked swelling | IC50/48 h on promastigotes [6]: 13.34 µg/mL (≈ 38.7 µM)

CC(=O)C1=C([O-])C=C2Oc3c(C(C)=O)c(O)c(C)c(O)c3C2(C)C1=O.CC(=O)C1=C([O-])C=C2Oc3c(C(C)=O)c(O)c(C)c(O)c3C2(C)C1=O.CC(=O)C1=C([O-])C=C2Oc3c(C(C)=O)c(O)c(C)c(O)c3C2(C)C1=O.O.O.O.[Eu+3] (centres unmarked) [EuL3·3H2O 4]
NO release from infected macrophages [7]: strongest effect | NO release from infected macrophages ([7]; listed as EuL3·3H2O): triggered NO release | TMRE-labeled promastigotes ([8]; 48 h after treatment at the calculated IC50): 79.9% | TMRE-labeled promastigotes ([8]; 72 h after treatment at the calculated IC50): 80.6% | 7-AAD-stained parasites ([9]; 24 h): 0.5% | An. (PE Annexin V-stained parasites) ([9]; 24 h): 0.6% | An./7-AAD (double stained parasites) ([9]; 24 h): 0.7% | Unst. (unstained parasites) ([9]; 24 h): 98.2% | 7-AAD-stained parasites ([9]; 48 h): 1.0% | An. (PE Annexin V-stained parasites) ([9]; 48 h): 1.3% | An./7-AAD (double stained parasites) ([9]; 48 h): 2.3% | Unst. (unstained parasites) ([9]; 48 h): 95.4% | 7-AAD-stained parasites ([9]; 72 h): 6.0% | An. (PE Annexin V-stained parasites) ([9]; 72 h): 1.9% | An./7-AAD (double stained parasites) ([9]; 72 h): 8.1% | Unst. (unstained parasites) ([9]; 72 h): 84.0% | IC50 [10]: 200 nM | IC50 [11]: 20.1 µM | IC50 ([12]; BALB/c peritoneal macrophages, 24 h, Giemsa count, read-out: L. amazonensis Intracellular Amastigotes (Ama.) IC50): 2980 nM | IC50 on intracellular amastigotes ([12]; converted from µM): 3.687 µg/mL
